From patent US6191135A, “Neurokinin antagonists” (Boehringer Ingelheim KG, priority 1994, dated 2001) come the findings set out here.

For this test, the target named is T1, NK1 -receptor (substance P-receptor) (Homo sapiens, UniProt P25103).
T1 construct: intact human lymphoblastoma cells (IM-9) which express NK1 -receptors; endogenous in cells; host or cells: IM-9 human lymphoblastoma cells
T1 sequence (P25103 whole entry): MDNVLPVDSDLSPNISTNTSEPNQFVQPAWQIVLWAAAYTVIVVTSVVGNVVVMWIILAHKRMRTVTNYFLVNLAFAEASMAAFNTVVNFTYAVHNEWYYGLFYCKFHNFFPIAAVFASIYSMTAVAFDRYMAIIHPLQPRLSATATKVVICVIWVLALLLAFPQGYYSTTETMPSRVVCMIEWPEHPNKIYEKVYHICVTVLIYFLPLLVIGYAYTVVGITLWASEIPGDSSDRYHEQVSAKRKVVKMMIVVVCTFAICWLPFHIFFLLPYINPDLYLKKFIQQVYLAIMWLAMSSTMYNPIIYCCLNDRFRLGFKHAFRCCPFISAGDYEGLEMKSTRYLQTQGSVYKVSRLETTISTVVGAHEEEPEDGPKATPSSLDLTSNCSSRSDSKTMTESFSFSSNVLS
Description: NK1-receptor affinity: displacement of 125I labelled substance P on intact human lymphoblastoma cells (IM-9). In kind it is binding. The conditions noted are these: intact human lymphoblastoma cells (IM-9) expressing NK1-receptors, read-out: Ki. Here is the method:
The receptor affinity for the NK1 -receptor (substance P-receptor) was determined on intact human lymphoblastoma cells (IM-9) which express NK1 -receptors, and the displacement of ^125 I labelled substance P was measured.
Background: In a radioligand displacement assay an active substance lowers the binding of a labelled ligand.
By Ki is commonly meant the dissociation constant of the complex between target and ligand, obtained from inhibition or displacement. Consider `COc1ccccc1C(CNCc1cc(C(F)(F)F)cc(C(F)(F)F)c1)N1CCN(CCc2ccccc2)CC1` (centres unmarked) [Example 26, 3,5-Bistrifluoromethylbenzyl-[2-(2-methoxyphenyl)-2-(4-(2-phenylethyl)-piperazine-1-yl)-ethyl]-amine], for which the Ki was 7 nM. The same measure for `COc1ccccc1C(CNC(=O)Nc1cc(C(F)(F)F)cc(C(F)(F)F)c1)N1CCN(Cc2ccccc2)CC1` (centres unmarked) [Example 147]: 190 nM; for `O=C(NCC(c1ccccc1)N1CCN(C2CCCCC2)CC1)Nc1cc(C(F)(F)F)cc(C(F)(F)F)c1` (centres unmarked) [Example 115, N-3,5-Bistrifluoromethylphenyl-N'-[2-phenyl-2-(4-cyclohexylpiperazine-1-yl)-ethyl]-urea]: 30 nM; for `COc1ccccc1C(CNCc1cc(C(F)(F)F)cc(C(F)(F)F)c1)N1CCN(c2ccccn2)CC1` (centres unmarked) [Example 28, 3,5-Bistrifluoromethylbenzyl-[2-(2-methoxyphenyl)-2-(4-(2-pyridyl)-piperazine-1-yl)-ethyl]-amine]: 102 nM. As for `COc1ccccc1C(CN(Cc1cc(C(F)(F)F)cc(C(F)(F)F)c1)C(C)=O)N1CCN(c2ccccc2)CC1` (centres unmarked) [Example 2, N-3,5-Bistrifluoromethylbenzyl-N-[2-(2-methoxyphenyl)-2-(4-phenylpiperazine-1-yl)-ethyl]-acetamide], the inhibition constant Ki came to 909 nM. The same measure for `COc1ccccc1C(CNC(=O)Nc1cc(C(F)(F)F)cc(C(F)(F)F)c1)N1CCC(C)CC1` (centres unmarked) [Example 170]: 84 nM; for `COc1ccccc1C(CNCc1cc(C(F)(F)F)cc(C(F)(F)F)c1)N1CCN(c2ccccc2)CC1` (centres unmarked) [Example 1, 3,5-Bistrifluoromethylbenzyl-[2-(2-methoxyphenyl)-2-(4-phenylpiperazine-1-yl)-ethyl]-amine]: 333 nM.

On to `COc1ccccc1C(CNCc1cc(C(F)(F)F)cc(C(F)(F)F)c1)N1CCCCC1C` (centres unmarked) [Example 80, 3,5-Bistrifluoromethylbenzyl-[2-(2-methoxyphenyl)-2-(2-methylpiperidine-1-yl)-ethyl]-amine], for which the Ki was 43 nM. On to `CN1CCN(C(CNC(=O)Nc2cc(C(F)(F)F)cc(C(F)(F)F)c2)c2ccccc2)CC1` (centres unmarked) [Example 105, N-3,5-Bistrifluoromethylphenyl-N'-[2-phenyl-2-(4-methylpiperazine-1-yl)-ethyl]-urea], for which the Ki turned out to be 78 nM.

Consider `COc1ccccc1C(CNCc1cc(C(F)(F)F)cc(C(F)(F)F)c1)N1CCN(C2CCCCC2)CC1` (centres unmarked) [Example 39, 3,5-Bistrifluoromethylbenzyl-[2-(2-methoxyphenyl)-2-(4-cyclohexylpiperazine-1-yl)-ethyl]-amine], for which the Ki amounted to 16 nM. On to `COc1ccccc1C(CNC(=O)Nc1cc(C(F)(F)F)cc(C(F)(F)F)c1)N1CCN(C(C)C)CC1` (centres unmarked) [Example 110, N-3,5-Bistrifluoromethylphenyl-N'-[2-(2-methoxyphenyl)-2-(4-(2-propyl)piperazin-1-yl)-ethyl]-urea], for which the inhibition constant (Ki) was determined as 28 nM. As for `COc1ccccc1C(CNCc1cc(C(F)(F)F)cc(C(F)(F)F)c1)N1CCN(CCC2CCCCC2)CC1` (centres unmarked) [Example 54, 3,5-Bistrifluoromethylbenzyl-[2-(2-methoxyphenyl)-2-(4-(2-cyclohexylethyl)-piperazine-1-yl)-ethyl]-amine], the Ki came to 20 nM. For `COc1ccccc1C(CNCc1cc(C(F)(F)F)cc(C(F)(F)F)c1)N1CCN(c2ccccc2C)CC1` (centres unmarked) [Example 19, 3,5-Bistrifluoromethylbenzyl-[2-(2-methoxyphenyl)-2-(4-(2-methylphenyl)-piperazine-1-yl)-ethyl]-amine], the Ki was 580 nM. The same measure for `COc1ccccc1C(CNC(=O)Nc1cc(C(F)(F)F)cc(C(F)(F)F)c1)N1CCN(CCC2CCCCC2)CC1` (centres unmarked) [Example 121, N-3,5-Bistrifluoromethylphenyl-N'-[2-(2-methoxyphenyl)-2-(4-(2-cyclohexylethyl)piperazine-1-yl)-ethyl]-urea]: 124 nM; for `COc1ccccc1C(CNC(=O)Cc1ccccc1C(F)(F)F)N1CCN(C2CCCCC2)CC1` (centres unmarked) [Example 64, N-[2-(2-Methoxyphenyl)-2-(4-cyclohexylpiperazine-1-yl)-ethyl]-2-(2-trifluoromethylphenyl)-acetamide]: 273 nM; for `COc1ccccc1C(CNC(=O)Nc1cc(C(F)(F)F)cc(C(F)(F)F)c1)N1CCN(C2CCCCCC2)CC1` (centres unmarked) [Example 120, N-3,5-Bistrifluoromethylphenyl-N'-[2-(2-methoxyphenyl)-2-(4-cycloheptylpiperazine-1-yl)-ethyl]-urea]: 36 nM. As for `COc1ccccc1C(CNC(=O)c1cc(C(F)(F)F)cc(C(F)(F)F)c1)N1CCN(C2CCCCC2)CC1` (centres unmarked) [Example 67, N-[2-(2-Methoxyphenyl)-2-(4-cyclohexylpiperazine-1-yl)-ethyl]-3,5-bistrifluoromethylbenzamide], the Ki is 14 nM. As to `COc1ccccc1C(CNCc1cc(C(F)(F)F)cc(C(F)(F)F)c1)N1CCN(Cc2ccccc2)CC1` (centres unmarked) [Example 22, 3,5-Bistrifluoromethylbenzyl-[2-(2-methoxyphenyl)-2-(4-benzylpiperazine-1-yl)-ethyl]-amine], the inhibition constant (Ki) worked out at 154 nM. Turning to `COc1ccccc1C(CNCc1cc(C(F)(F)F)cc(C(F)(F)F)c1)N1CCC(c2c[nH]c3ccccc23)CC1` (centres unmarked) [Example 97, 3,5-Bistrifluoromethylbenzyl-(2-(2-methoxyphenyl)-2-(4-(3-indolyl)-piperidine-1-yl)-ethyl]-amine], the Ki worked out at 300 nM. As for `FC(F)(F)c1cc(CNCC(c2ccccc2)N2CCN(c3ccccc3)CC2)cc(C(F)(F)F)c1` (centres unmarked) [Example 3, 3,5-Bistrifluoromethylbenzyl-[2-phenyl-2-(4-phenylpiperazine-1-yl)-ethyl]-amine], the Ki was determined as 800 nM. The same measure for `COc1ccccc1C(CNC(=O)Nc1cc(C(F)(F)F)cc(C(F)(F)F)c1)N1CCN(C(C)c2ccccc2)CC1` (centres unmarked) [Example 151]: 215 nM. The same measure for `FC(F)(F)c1cc(CNCC(c2ccccc2)N2CCOCC2)cc(C(F)(F)F)c1` (centres unmarked) [Example 96, 3,5-Bistrifluoromethylbenzyl-(2-phenyl-2-morpholine-4-yl-ethyl)-amine]: 185 nM.

As for `COc1ccccc1C(CNC(=O)Nc1cc(C(F)(F)F)cc(C(F)(F)F)c1)N1CCCCC1` (centres unmarked) [Example 166], the Ki was found to be 150 nM. On to `COc1ccccc1C(CNC(=O)Nc1cc(C(F)(F)F)cc(C(F)(F)F)c1)N1CCN(c2ccccc2)CC1` (centres unmarked) [Example 142], for which the inhibition constant (Ki) is 650 nM. Turning to `COc1ccccc1C(CNCc1cc(C(F)(F)F)cc(C(F)(F)F)c1)N1CCN(CCO)CC1` (centres unmarked) [Example 57, 3,5-Bistrifluoromethylbenzyl-[2-(2-methoxyphenyl)-2-(4-(2-hydroxyethyl)-piperazine-1-yl)-ethyl]-amine], the Ki was 64 nM. The same measure for `COc1ccccc1C(CNCc1cc(C(F)(F)F)cc(C(F)(F)F)c1)N1CCC(C2CCCCC2)CC1` (centres unmarked) [Example 89, 3,5-Bistrifluoromethylbenzyl-[2-(2-methoxyphenyl)-2-(4-cyclohexylpiperidine-1-yl)-ethyl]-amine]: 80 nM; for `O=C(NCC(c1ccccc1)N1CCCCC1)Nc1cc(C(F)(F)F)cc(C(F)(F)F)c1` (centres unmarked) [Example 167]: 1000 nM; for `COc1ccccc1C(CNCc1cc(C(F)(F)F)cc(C(F)(F)F)c1)N1CCCC(C)C1` (centres unmarked) [Example 81, 3,5-Bistrifluoromethylbenzyl-[2-(2-methoxyphenyl)-2-(3-methylpiperidine-1-yl)-ethyl]-amine]: 90 nM. Take `COc1ccccc1C(CNCc1cc(C(F)(F)F)cc(C(F)(F)F)c1)N1CCC(N2CCCCC2)CC1` (centres unmarked) [Example 91]: the Ki was 2 nM. Then `O=C(NCC(c1ccccc1)N1CCN(Cc2ccccc2)CC1)Nc1cc(C(F)(F)F)cc(C(F)(F)F)c1` (centres unmarked) [Example 146], with 115 nM.

On to `COc1ccccc1C(CNCc1cc(C(F)(F)F)cc(C(F)(F)F)c1)N1CCN(Cc2ccc3c(c2)OCO3)CC1` (centres unmarked) [Example 27, 3,5-Bistrifluoromethylbenzyl-[2-(2-methoxyphenyl)-2-(4-(3,4-methylenedioxybenzyl)-piperazine-1-yl)-ethyl]-amine], for which the Ki was 111 nM.

As for `COc1ccccc1C(CNC(=O)Nc1cc(C(F)(F)F)cc(C(F)(F)F)c1)N1CCN(c2ccccn2)CC1` (centres unmarked) [Example 156], the Ki was 479 nM.

As for `COc1ccccc1C(CNC(=O)Cc1ccc(Cl)c(Cl)c1)N1CCN(C2CCCCC2)CC1` (centres unmarked) [Example 62, N-[2-(2-Methoxyphenyl)-2-(4-cyclohexylpiperazine-1-yl)-ethyl]-2-(3,4-dichlorophenyl)-acetamide], the Ki worked out at 276 nM. `COc1ccccc1C(CNC(=O)Nc1cc(C(F)(F)F)cc(C(F)(F)F)c1)N1CC(C)CC(C)C1` (centres unmarked) [Example 172]: the inhibition constant (Ki) turned out to be 173 nM. Then `O=C(NCC(c1ccc(Cl)c(Cl)c1)N1CCN(C2CCCCC2)CC1)Nc1cc(C(F)(F)F)cc(C(F)(F)F)c1` (centres unmarked) [Example 117, N-3,5-Bistrifluoromethylphenyl-N'-[2-(3,4-dichlorophenyl)-2-(4-cyclohexylpiperazine-1-yl)-ethyl]-urea], with 15 nM; and `COc1ccccc1C(CNCc1cc(C(F)(F)F)cc(C(F)(F)F)c1)N1CCN(C(C)c2ccccc2)CC1` (centres unmarked) [Example 23, 3,5-Bistrifluoromethylbenzyl-[2-(2-methoxyphenyl)-2-(4-(1-phenylethyl)-piperazine-1-yl)-ethyl]-amine], with 108 nM. `COc1ccccc1C(CNC(=O)Cc1cc(C(F)(F)F)cc(C(F)(F)F)c1)N1CCN(C2CCCCCC2)CC1` (centres unmarked) [Example 68, N-[2-(2-Methoxyphenyl)-2-(4-cycloheptylpiperazine-1-yl)-ethyl]-2-(3,5-bistrifluoromethyl-phenyl)-acetamide]: the inhibition constant Ki was 3 nM. The same measure for `COc1ccccc1C(CNC(=O)Cc1cc(C(F)(F)F)cc(C(F)(F)F)c1)N1CCCCC1` (centres unmarked) [Example 78, N-[2-(2-Methoxyphenyl)-2-piperidin-1-yl-ethyl]-2-(3,5-bistrifluoromethylphenyl)acetamide]: 250 nM.
